# Results published in patent publication US20220079889A1, “USE OF CANNABANOIDS IN THE TREATMENT OF PROLIFERATIVE DIABETIC RETINOPATHY” (VERDANT PHARMACEUTICALS, LLC, priority 2020, published 2022).
# How the values were obtained:
# [1] = tested on: TNF-α; assay: ELISA of RPE-choroid complex after laser injury: TNF-α; type: in vivo, rat; conditions: laser-treated animals, 3 days after laser injury; 0.3 mg/kg BW daily i.p.
# Procedure: (§1) To block CB, a specific CBD, Compound 11 described above, was used (R-tech Ueno, Ltd., Tokyo, Japan). After laser injury, the inhibitor (0.3 mg/kg BW) was administered to the animals by daily i.p. injections. As a control, some animals received the same regimen for the vehicle solution alone.
# (§2) The RPE-choroid complex was carefully isolated from eyes 3 days after photocoagulation and placed in 300 μl of lysis buffer supplemented with protease inhibitors and sonicated. The lysate was centrifuged at 15,000 rpm for 15 minutes at 4° C. and the levels of TNF-α, monocyte chemotactic protein (MCP)-1, and intercellular adhesion molecule (ICAM)-1 were determined with rat TNF-α (BI) bioscience), MCP-1 (BD bioscience) and ICAM-1 (R&D Systems, Minneapolis, Minn.) enzyme-linked immunosorbent assay (ELISA) kits according to the manufacturers' protocols. Total protein concentration was determined using a Bio-Rad Protein Assay Kit (Bio-Rad Laboratories Hercules, Calif.) and dilutions of bovine serum albumin (Bio-Rad Laboratories) as standards.
# [2] = tested on: ED-1-positive cells in the CNV lesions; assay: Quantification of macrophage infiltration into CNV lesions; type: in vivo, Brown-Norway rats
# Procedure: as §1
# At 1, 3, and 7 days after laser injury and treatment with either CBD or vehicle solution, animals were perfused with 200 ml of PBS/kg BW under deep anesthesia. Subsequently, eyes were enucleated and fixed overnight with 4% PFA, and 10 μm frozen sections of the posterior segment, including the center portion of CNV lesions (6 lesions per eye), were prepared and pre-blocked (PBS containing 10% goat serum, 0.5% gelatin, 3% BSA, and 0.2% Tween 20). […] The photographs of CNV lesions were taken, and the numbers of ED-1-positive cells were counted. To obtain a quantitative index of macrophage numbers in CNV lesions, an optical density plot of the selected area was generated by a histogram graphing tool in the Photoshop imageanalysis software (version 6.0: Adobe Systems, Mountain View, Calif.), as described in the literature (for example, Sakurai et al. (2003) IOVS 44: 3578-85). […]
# [3] = tested on: IL-1β-induced corneal angiogenesis; assay: IL-1β-induced corneal angiogenesis; type: in vivo, BALB/c mice; conditions: 0.3 mg/kg daily i.p.; compared with untreated controls
# Procedure: BALB/c mice were anesthetized by intraperitoneal (i.p.) injection of pentobarbital sodium (60 mg/kg). Hydron pellets (0.3 μl) containing 30 ng mouse IL-1β (401-ML, R&D Systems) were prepared and implanted into the corneas. Pellets were positioned 1 mm from the corneal limbus. Implanted eyes were treated with Bacitracin ophthalmic ointment (E. Fougera & Co.) to prevent infection. To block CB, mice received daily i.p. injections of a specific CBD. Compound II (R-tech Ueno Ltd., Tokyo, Japan) as described above. A daily dose of 0.3 mg/kg was administered at day 0 and continued until the sixth day after implantation. Two, four and six days after implantation, digital images of the corneal vessels were obtained and recorded using OpenLab software version 2.2.5 (Improvision Inc.) with standardized illumination and contrast and were saved onto disks. The quantitative analysis of new vessel growth in the mouse corneas was performed using Scion Image software (version 4.0.2, Scion Corp.).
# [4] = tested on: MCP-1; assay: ELISA of RPE-choroid complex after laser injury: MCP-1; type: in vivo, rat; conditions: laser-treated animals, 3 days after laser injury; 0.3 mg/kg BW daily i.p.
# Procedure: as §1, §2
smiles,measurement,setting,value
CC(=O)Nc1nc(CCc2ccc(NC(=N)NN)cc2)c(Cc2ccc(S(C)(=O)=O)cc2)s1 [Compound II],protein level of TNF-α in the RPE-choroid complex,[1],360 ± 12 pg/mg
same,reduction of number of accumulated macrophages,"[2]; 3 days after laser injury, 0.3 mg/kg BW daily i.p., n=4, p<0.05",41%
same,effect on accumulation of macrophages in the CNV lesions (in words),"[2]; laser injury model, rats",significantly decreased
same,effect on corneal angiogenesis (in words),[3],effectively suppresses corneal angiogenesis
same,protein level of MCP-1 in the RPE-choroid complex,[4],662 ± 52 pg/mg
